Laboratory results published in publication PMC10448230 (RSC Advances, 2023).
Read-outs that look alike come from different tables or passages of the source.

What was measured:
[1] = target: equine butyrylcholinesterase (Equus caballus, UniProt P81908); assay: Butyrylcholinesterase inhibition; assay type: biochemical
[2] = target: electric eel acetylcholinesterase (type-IV-S) (Electrophorus electricus, UniProt O42275); assay: biochemical; assay type: biochemical
Sequence of electric eel acetylcholinesterase (type-IV-S) (O42275 24-633): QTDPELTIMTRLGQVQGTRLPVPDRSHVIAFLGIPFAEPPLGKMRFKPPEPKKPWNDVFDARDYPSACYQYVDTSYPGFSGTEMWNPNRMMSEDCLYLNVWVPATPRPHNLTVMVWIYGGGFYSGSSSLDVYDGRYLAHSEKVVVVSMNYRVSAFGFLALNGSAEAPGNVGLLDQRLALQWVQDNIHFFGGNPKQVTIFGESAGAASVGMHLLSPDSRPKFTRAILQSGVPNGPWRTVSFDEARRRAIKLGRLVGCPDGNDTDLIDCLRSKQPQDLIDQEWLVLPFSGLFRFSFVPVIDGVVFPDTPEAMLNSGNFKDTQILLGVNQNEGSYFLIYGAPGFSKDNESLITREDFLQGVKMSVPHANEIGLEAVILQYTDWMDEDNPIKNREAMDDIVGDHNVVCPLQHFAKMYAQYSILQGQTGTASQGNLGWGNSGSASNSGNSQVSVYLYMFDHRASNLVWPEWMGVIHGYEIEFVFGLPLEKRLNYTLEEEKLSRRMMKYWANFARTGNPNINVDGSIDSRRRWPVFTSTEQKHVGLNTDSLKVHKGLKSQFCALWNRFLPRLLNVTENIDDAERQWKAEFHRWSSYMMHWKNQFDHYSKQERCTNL

Sequence of equine butyrylcholinesterase (P81908 whole entry): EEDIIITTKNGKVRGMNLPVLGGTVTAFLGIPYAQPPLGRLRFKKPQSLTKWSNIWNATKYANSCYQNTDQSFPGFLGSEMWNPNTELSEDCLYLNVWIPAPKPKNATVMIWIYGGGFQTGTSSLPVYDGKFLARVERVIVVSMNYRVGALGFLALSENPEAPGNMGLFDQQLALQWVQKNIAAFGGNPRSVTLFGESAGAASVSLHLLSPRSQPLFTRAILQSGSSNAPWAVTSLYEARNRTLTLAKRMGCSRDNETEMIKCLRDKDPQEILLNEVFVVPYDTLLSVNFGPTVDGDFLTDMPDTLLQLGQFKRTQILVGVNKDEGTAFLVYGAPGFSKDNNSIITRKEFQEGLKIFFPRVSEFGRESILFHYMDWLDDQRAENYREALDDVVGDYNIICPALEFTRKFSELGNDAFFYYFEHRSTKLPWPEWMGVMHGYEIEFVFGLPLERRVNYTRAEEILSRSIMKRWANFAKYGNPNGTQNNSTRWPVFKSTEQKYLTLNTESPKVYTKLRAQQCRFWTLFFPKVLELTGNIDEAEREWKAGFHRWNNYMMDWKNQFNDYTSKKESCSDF

Compound	IC50 [1]	IC50 [2]	IC50 ([1]; read-out: BChE IC50 (μM) ± SD, NA = not active, galantamine as positive control)	IC50 ([2]; read-out: AChE IC50 (μM) ± SD, NA = not active, galantamine as positive control)
CCC/C=N/NC(=O)COc1ccc(Sc2ccc(OCC(=O)N/N=C/CCC)cc2)cc1 [4y, 2,2′-((Thiobis(4,1-phenylene))bis(oxy))bis(N′-((E)-butylidene)acetohydrazide)]	101.1 ± 0.938 µM	122.6 ± 0.943 µM	–	–
CCCC/C=N/NC(=O)COc1ccc(Sc2ccc(OCC(=O)N/N=C/CCCC)cc2)cc1 [4x, 2,2′-((Thiobis(4,1-phenylene))bis(oxy))bis(N′-((E)-pentylidene)acetohydrazide)]	103.1 ± 0.877 µM	186.3 ± 0.876 µM	–	–
2,2′-((Thiobis(4,1-phenylene))bis(oxy))bis(N′-((E)-4-fluorobenzylidene)acetohydrazide) [4s]	–	–	36.4 ± 0.702 µM	91.5 ± 0.615 µM
